Values of other authors as cited in US20030101005A1, “Crystals and structures of perosamine synthase homologs” (priority 2001, published 2003).

Target: T1, His-tag RfbE fusion protein (GDP-4-keto-6-deoxy-D-mannose-4-aminotransferase) (Vibrio cholerae, UniProt Q06953)
T1 construct: His-tag
Settings: substrate or cosubstrate of His-tag RfbE fusion protein

T1 sequence (Q06953 whole entry, the tested form may be a part): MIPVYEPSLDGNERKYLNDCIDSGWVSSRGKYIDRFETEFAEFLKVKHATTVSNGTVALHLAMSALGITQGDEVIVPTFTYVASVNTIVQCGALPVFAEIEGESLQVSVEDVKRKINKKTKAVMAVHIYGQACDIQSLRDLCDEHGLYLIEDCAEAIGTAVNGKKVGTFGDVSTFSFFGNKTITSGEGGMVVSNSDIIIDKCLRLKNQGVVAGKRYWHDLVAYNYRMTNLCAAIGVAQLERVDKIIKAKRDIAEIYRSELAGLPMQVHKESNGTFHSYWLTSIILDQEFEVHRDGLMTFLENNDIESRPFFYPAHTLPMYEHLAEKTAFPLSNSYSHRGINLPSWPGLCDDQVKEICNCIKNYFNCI

| SMILES | K(m) | V(max) |
| --- | --- | --- |
| CC1OC(OP(=O)(O)OP(=O)(O)OCC2OC(n3cnc4c(=O)[nH]c(N)nc43)C(O)C2O)C(O)C(O)C1=O [GDP-4-keto-6-deoxy-D-mannose] | 0.06 mM | 38 nkat/mg protein |
| N[C@@H](CCC(=O)O)C(=O)O [L-glutamate] | 0.1 mM | 42 nkat/mg protein |
